According to patent publication US11135224B2, “Methods of sensitizing estrogen receptor positive (ER+) breast cancer cells to endocrine therapy” (New York University, priority 2018, dated 2021):

Assays:
[1] = test system: ATF2 phosphorylation at Thr69/71 (target of RSK, JNK1, p38 MAPK) and eIF4B S422 (target of RSKs); assay: Immunoblot of ATF2 and eIF4B phosphorylation in TamR cells; assay type: cell-based, human; conditions: 10 μM for 6 hours
Experimental: Hsp70 (loading control). […] Cells were treated with DMSO, 1 μM 4-OH Tam, 4-OH Tam and CGP 57380 (10 μM), or 1 μM 4-OH Tam, CGP57380, and 20 nM RAD001 therapies 24 hours after plating. Treatment was changed every 72 hours. Colonies were scored after 10 days counting only >50 cells/colony. Results are representative of three independent experiments. SEM is shown. […] Results from three independent experiments. Error bars represent SEM (n.s.=not significant). […] Equal amounts of RNA were resolved by sucrose gradient centrifugation and ribosome profiles monitored by UV absorbance 254 nm. Results are representative images of two independent experiments.
(§1) Immunoblot Studies: In brief, cells were lysed in NP-40 buffer (50 mM HEPES, pH 7.0, 150 mM NaCl, 2 mM EDTA, 25 mM NaF, 25 mM β-glycerophosphate, 2 mM Na3VO4, 1% IGEPAL, and Complete Mini protease inhibitor cocktail tablet+/−EDTA; Roche) or RIPA lysis buffer (1% Triton X-100, 1% sodium deoxycholate, 0.1% SDS, 150 mM NaCl, 50 mM Tris, pH 7.4, 2 mM Na3VO4, 25 mM β-glycerophosphate, 15 mM NaF, and complete protease inhibitor mix; Roche) and lysate cleared by centrifugation at 13,000 rpm for 10 minutes at 4° C. Lysate protein concentration was determined for each sample using BCA assay. […] Quantitation was performed by determination of the integrated density of the bands using ImageJ software. […]

RUNX2 protein = RUNX2 protein immunoblot after CGP57380; assay type: cell-based, human; conditions: TamS and TamR cells, treated for 6 hours vs untreated
Experimental: The average of three studies is shown. The immunoblot is representative of three independent studies. […] Equal amounts of RNA were quantified by RT-qPCR and normalized to GAPDH using the −ΔΔCt method. An average of three studies is shown. […] Equal protein amounts were immunoblotted as shown. eEF2 was used as a loading control. […] Cells were treated with DMSO and 1 μM4-OHT and silenced for Runx2 or nonsilencing (NS). The results of three independent experiments are shown. […] Lines represent validated and predicted interactions. […] (**)P<0.01; (***)P<0.001 by t-test.
Immunoblot Studies: In brief, cells were lysed in NP-40 buffer (50 mM HEPES, pH 7.0, 150 mM NaCl, 2 mM EDTA, 25 mM NaF, 25 mM β-glycerophosphate, 2 mM Na3VO4, 1% IGEPAL, and Complete Mini protease inhibitor cocktail tablet+/−EDTA; Roche) or RIPA lysis buffer (1% Triton X-100, 1% sodium deoxycholate, 0.1% SDS, 150 mM NaCl, 50 mM Tris, pH 7.4, 2 mM Na3VO4, 25 mM β-glycerophosphate, 15 mM NaF, and complete protease inhibitor mix; Roche) and lysate cleared by centrifugation at 13,000 rpm for 10 minutes at 4° C. Lysate protein concentration was determined for each sample using BCA assay. […] Quantitation was performed by determination of the integrated density of the bands using ImageJ software.
The biological functions of mRNAs identified as highly eIF4E-dependent in tamoxifen-resistant cells were next assessed. […]

[2] = test system: eIF4E phosphorylation (MNK1); assay: Immunoblot of eIF4E phosphorylation, CGP57380 dose escalation in TamS and TamR cells; assay type: cell-based, human; conditions: escalating doses, 2 hours
Experimental: Endogenous eIF4E was silenced by shRNA. Cell proliferation was assayed by MTT assay with cells treated with DMSO vehicle or 1 μM 4-OHT. Results are from three independent experiments. […] Endogenous eIF4E was silenced by shRNA. Cell proliferation was assayed by MTT assay using conditions described above for FIG. 4. Results from three independent experiments are shown. FIG. 6C is an immunoblot of TamS and TamR cells treated with escalating doses of CGP57380 (GCP) for 2 hours and lysed in NP-40 buffer; equal protein amounts were probed for P-eIF4E, total eIF4E, and β-actin (loading control). […] Cells were treated with DMSO, 1 μM 4-OHT, or 4-OHT and MNK1 inhibitor CGP. […]
as §1

p38, JNK1, and RSKs = conditions: at 10 μM; cited from earlier work

Nc1ncnc2n[nH]c(Nc3ccc(F)cc3)c12 [CGP57380]
phosphorylation of ATF2 Thr69/71 and eIF4B S422 [1]: no change in phosphorylation | RUNX2 protein levels (RUNX2 protein): reduced more than threefold | concentration for complete inhibition of eIF4E phosphorylation [2]: 10 µM | inhibitory activity on other families of related kinases (p38, JNK1, and RSKs) (p38, JNK1, and RSKs): no inhibitory activity
